Test results: ChEMBL document CHEMBL1149390, “Potent CYP19 (aromatase) 1-[(benzofuran-2-yl)(phenylmethyl)pyridine, -imidazole, and -triazole inhibitors: synthesis and biological evaluation” (J Med Chem, 2006)
Activity calls are given as the source filed them. The rule behind the calls is not given here.

Key:
Hepatocyte [1] = assay: cells; format: functional; settings: Rattus norvegicus, 24 h, read-out: LC50 (the source's name)
Hepatocyte [2] = settings: Rattus norvegicus

COc1ccc2cc(C(c3ccc(F)cc3)n3cncn3)oc2c1 (stereo not drawn)
CC50 (Hepatocyte [1]): 100 µM | LC50 (Hepatocyte [2]): inactive

COc1ccc(C(c2cc3ccc(OC)cc3o2)n2ccnc2)cc1 (stereo not drawn)
CC50 (Hepatocyte [1]): 50 µM | LC50 (Hepatocyte [2]): inactive

COc1ccc(C(c2cc3ccc(OC)cc3o2)n2cncn2)cc1 (stereo not drawn)
CC50 (Hepatocyte [1]): 90 µM | LC50 (Hepatocyte [2]): inactive

COc1ccc(C(O)(c2cccnc2)c2cc3ccc(OC)cc3o2)cc1 (stereo not drawn)
CC50 (Hepatocyte [1]): 100 µM | LC50 (Hepatocyte [2]): inactive

COc1ccc2cc(C(O)(c3ccc(F)cc3)c3cccnc3)oc2c1 (stereo not drawn)
CC50 (Hepatocyte [1]): > 100 µM | LC50 (Hepatocyte [2]): inactive

COc1ccc2cc(C(c3ccc(Cl)cc3)n3cncn3)oc2c1 (stereo not drawn)
CC50 (Hepatocyte [1]): 50 µM | LC50 (Hepatocyte [2]): inactive

CC(C)(C#N)c1cc(Cn2cncn2)cc(C(C)(C)C#N)c1 [ANASTROZOLE]
CC50 (Hepatocyte [1]): > 200 µM
